Laboratory results reported in ChEMBL document CHEMBL1201862, “PubChem BioAssay data set” (2004).
The source made the active and inactive calls.

Assays:
[1] = system: INS1; test: INS-1E survival protection against cytokine death – cell-based, luminescence, retest, dose response (AID 449756); type: functional; conditions: Rattus norvegicus;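 note: cell death triggered by IL-1 beta plus TNF-alpha plus IFN-gamma mixture; protective hits raise ATP signal compared with cytokine alone wells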
[2] = loss of viability in HepG2 cells – cell-based, CellTiter-Glo, cherry-picked, cytotoxicity control for Shn3 inhibitor project, dose response (AID 624134); type: functional
[3] = reduction of Shn3 3'UTR-driven luciferase in osteoblasts – cell-based, Clone20 osteoblasts, firefly luciferase, cherry-picked, dose response (AID 624132); type: functional;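 note: firefly luciferase luminescence from reporter carrying the Shn3 3'UTR in osteoblasts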
[4] = system: BJ; test: cells; type: functional, cell-based; conditions: Homo sapiens
[5] = system: BJ; test: BJ-TERT fibroblast viability loss – cell-based, RAS-independent, luminescence, dose response (AID 1933); type: functional; conditions: Homo sapiens
[6] = DRD fibroblast viability loss – cell-based, non-viral oncogenic, luminescence, dose response (AID 1934); type: functional; conditions: Homo sapiens
[7] = system: BJ; test: BJ-TERT-LT-ST fibroblast viability loss – cell-based, RAS-independent, luminescence, dose response (AID 1935); type: functional; conditions: Homo sapiens;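 note: BJ fibroblasts immortalized with TERT plus LT and ST oncogenes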
[8] = biological target: T1, Galanin receptor type 3 (Homo sapiens, UniProt O60755); test: Fluorescence-based cell-based primary high throughput dose response assay to identify antagonists of the Galanin Receptor 3 (GalR3).; type: functional
T1 sequence (O60755 whole entry): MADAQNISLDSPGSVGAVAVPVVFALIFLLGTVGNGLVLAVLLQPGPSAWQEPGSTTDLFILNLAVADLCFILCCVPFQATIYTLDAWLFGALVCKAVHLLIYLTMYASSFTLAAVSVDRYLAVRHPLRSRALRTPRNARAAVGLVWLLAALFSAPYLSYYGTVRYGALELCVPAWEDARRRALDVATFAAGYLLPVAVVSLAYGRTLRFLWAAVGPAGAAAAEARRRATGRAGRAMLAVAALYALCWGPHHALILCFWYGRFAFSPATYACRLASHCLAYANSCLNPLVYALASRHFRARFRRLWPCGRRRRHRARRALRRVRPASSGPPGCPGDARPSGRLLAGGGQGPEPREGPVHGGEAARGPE

[9] = non-specific 3'UTR reporter inhibition in Clone20-Shn3RL – cell-based, Renilla luciferase, cherry-picked, counter-screen for Shn3 inhibitor project, dose response (AID 624133); type: functional
[10] = cells; type: functional, cell-based; conditions: HEK-CNG
[11] = HEK-293T viability loss after treatment – luminescence, T-cell screen hits, cytotoxicity control for TCR NF-kB inhibitor project, dose response (AID 489026); type: functional, cell-based;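 note: cells exposed to compound about 14 hours before the viability readout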
[12] = biological target: T2, DNA repair and recombination protein RAD54-like (Homo sapiens, UniProt Q92698); test: RAD54 Holliday junction migration blockers – biochemical, fluorescence, cherry-picked samples, dose series, confirmation (AID 651657); type: functional
T2 sequence (Q92698 whole entry): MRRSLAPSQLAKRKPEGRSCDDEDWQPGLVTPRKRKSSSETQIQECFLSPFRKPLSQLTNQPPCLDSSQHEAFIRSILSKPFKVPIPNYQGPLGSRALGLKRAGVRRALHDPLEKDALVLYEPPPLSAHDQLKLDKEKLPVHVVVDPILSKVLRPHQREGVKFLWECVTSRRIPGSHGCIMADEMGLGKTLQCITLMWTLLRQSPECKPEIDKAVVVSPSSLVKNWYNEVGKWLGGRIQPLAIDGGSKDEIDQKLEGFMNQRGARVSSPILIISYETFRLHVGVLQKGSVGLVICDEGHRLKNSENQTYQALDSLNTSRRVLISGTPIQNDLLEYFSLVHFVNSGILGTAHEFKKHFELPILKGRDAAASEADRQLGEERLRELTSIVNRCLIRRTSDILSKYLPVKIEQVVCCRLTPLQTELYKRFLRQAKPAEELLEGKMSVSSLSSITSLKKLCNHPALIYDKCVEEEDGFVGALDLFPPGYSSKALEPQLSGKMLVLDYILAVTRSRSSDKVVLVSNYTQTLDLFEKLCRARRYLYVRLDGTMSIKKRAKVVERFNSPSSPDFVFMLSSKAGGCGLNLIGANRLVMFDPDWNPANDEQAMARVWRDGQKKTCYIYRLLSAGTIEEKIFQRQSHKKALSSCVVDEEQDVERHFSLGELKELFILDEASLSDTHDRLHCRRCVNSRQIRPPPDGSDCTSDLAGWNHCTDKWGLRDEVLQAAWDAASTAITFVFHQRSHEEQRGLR

[13] = Trypanosoma cruzi growth suppression in host cells – NIH3T3 host cells, beta-gal luminescence, confirmation (AID 2044); type: functional, cell-based;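 note: intracellular parasites grown in NIH/3T3 mouse fibroblasts as host cells; luminescent beta-galactosidase reporter signal from transgenic T. cruzi replicating inside host cells; inhibitors lower the luminescence signal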
[14] = biological target: Photoreceptor-specific nuclear receptor (Homo sapiens, UniProt Q9Y5X4); type: functional, cell-based;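 note: CHO-S cells with Gal4-NCOR and VP16-NR2E3 two-hybrid luciferase reporter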
[15] = NIH3T3 cell viability loss – ATP luminescence, mouse fibroblasts, counter-screen, dose response (AID 2010); type: functional, cell-based;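 note: cells exposed to compound for about 90 hours before reading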
[16] = biological target: T3, Low molecular weight phosphotyrosine protein phosphatase (Homo sapiens, UniProt P24666); type: functional; conditions: read-out: IC50_Mean
T3 sequence (P24666 whole entry): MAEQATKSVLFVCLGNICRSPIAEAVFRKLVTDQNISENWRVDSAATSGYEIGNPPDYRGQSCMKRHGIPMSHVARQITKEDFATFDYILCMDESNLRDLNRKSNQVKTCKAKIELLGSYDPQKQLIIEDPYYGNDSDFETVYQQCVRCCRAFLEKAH

[17] = biological target: T3, Low molecular weight phosphotyrosine protein phosphatase; type: functional; conditions: read-out: IC50_Mean; remark: listed apart in the source
[18] = viability of uninfected HEp-2 cells – cell-based, HTS, cytotoxicity control for RSV inhibitor project, dose response (AID 2410); type: functional; conditions: human respiratory syncytial virus
[19] = cells
[20] = biological target: T4, High affinity choline transporter 1 (Homo sapiens, UniProt Q9GZV3); test: human choline transporter blockers, potency – cell-based, 5-point CRC, membrane potential dye, dose response (AID 504840); type: functional
T4 sequence (Q9GZV3 whole entry): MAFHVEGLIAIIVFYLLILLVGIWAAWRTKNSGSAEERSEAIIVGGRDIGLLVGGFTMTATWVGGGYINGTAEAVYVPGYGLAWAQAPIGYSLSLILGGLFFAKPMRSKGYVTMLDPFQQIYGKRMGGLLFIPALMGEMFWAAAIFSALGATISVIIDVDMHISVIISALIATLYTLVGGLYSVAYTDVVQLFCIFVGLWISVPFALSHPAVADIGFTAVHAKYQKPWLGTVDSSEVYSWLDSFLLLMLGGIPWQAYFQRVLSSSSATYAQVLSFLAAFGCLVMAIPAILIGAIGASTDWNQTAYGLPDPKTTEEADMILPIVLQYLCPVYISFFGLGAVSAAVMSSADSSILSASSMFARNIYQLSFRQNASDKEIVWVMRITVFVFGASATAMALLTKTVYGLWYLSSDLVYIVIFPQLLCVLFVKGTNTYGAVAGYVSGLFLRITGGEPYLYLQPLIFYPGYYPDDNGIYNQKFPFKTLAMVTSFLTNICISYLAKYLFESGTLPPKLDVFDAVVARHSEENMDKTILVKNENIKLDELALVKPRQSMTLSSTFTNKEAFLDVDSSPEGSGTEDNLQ

[21] = blockers of CRF-binding protein–CRF-R2 complex – cell-based, uHTS hits, 384-well, dose response (AID 651639); type: functional, Homo sapiens; conditions: read-out: IC50_Mean
[22] = biological target: T5, Corticotropin-releasing factor receptor 2/Corticotropin-releasing factor-binding protein (Homo sapiens, UniProt P24387+Q13324); test: Dose Response confirmation of uHTS hits for small molecule antagonists of the CRF-binding protein and CRF-R2 receptor complex.; type: functional; conditions: read-out: IC50_Mean
T5 sequence (Q13324 whole entry): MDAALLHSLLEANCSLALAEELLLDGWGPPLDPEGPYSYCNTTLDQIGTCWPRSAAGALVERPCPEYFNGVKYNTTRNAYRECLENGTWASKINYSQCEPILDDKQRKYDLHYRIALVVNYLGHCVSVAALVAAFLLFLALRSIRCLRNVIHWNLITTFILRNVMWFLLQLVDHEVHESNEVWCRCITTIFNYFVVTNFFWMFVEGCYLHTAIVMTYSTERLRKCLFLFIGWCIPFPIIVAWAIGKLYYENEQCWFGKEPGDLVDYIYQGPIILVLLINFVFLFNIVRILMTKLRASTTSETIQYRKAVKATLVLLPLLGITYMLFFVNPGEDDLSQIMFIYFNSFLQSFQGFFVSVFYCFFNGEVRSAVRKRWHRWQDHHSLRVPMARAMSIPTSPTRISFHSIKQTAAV
T5 sequence (P24387 whole entry): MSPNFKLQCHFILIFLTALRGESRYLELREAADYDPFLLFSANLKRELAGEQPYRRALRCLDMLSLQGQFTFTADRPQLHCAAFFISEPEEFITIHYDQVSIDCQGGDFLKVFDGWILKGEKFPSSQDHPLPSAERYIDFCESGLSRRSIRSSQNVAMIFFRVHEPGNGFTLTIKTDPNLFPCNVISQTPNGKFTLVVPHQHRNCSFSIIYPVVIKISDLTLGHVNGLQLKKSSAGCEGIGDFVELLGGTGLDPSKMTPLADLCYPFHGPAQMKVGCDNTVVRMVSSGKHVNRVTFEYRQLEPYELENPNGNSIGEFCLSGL

[23] = biological target: T6, Aminopeptidase N (Plasmodium falciparum FcB1/Columbia, UniProt O96935); test: malaria alanyl aminopeptidase activity blockers – biochemical, fluorogenic H-Leu-NHMec substrate, 1536-well (AID 1445); set-up: species or system Plasmodium falciparum 3D7, 3D7
T6 sequence (O96935 whole entry): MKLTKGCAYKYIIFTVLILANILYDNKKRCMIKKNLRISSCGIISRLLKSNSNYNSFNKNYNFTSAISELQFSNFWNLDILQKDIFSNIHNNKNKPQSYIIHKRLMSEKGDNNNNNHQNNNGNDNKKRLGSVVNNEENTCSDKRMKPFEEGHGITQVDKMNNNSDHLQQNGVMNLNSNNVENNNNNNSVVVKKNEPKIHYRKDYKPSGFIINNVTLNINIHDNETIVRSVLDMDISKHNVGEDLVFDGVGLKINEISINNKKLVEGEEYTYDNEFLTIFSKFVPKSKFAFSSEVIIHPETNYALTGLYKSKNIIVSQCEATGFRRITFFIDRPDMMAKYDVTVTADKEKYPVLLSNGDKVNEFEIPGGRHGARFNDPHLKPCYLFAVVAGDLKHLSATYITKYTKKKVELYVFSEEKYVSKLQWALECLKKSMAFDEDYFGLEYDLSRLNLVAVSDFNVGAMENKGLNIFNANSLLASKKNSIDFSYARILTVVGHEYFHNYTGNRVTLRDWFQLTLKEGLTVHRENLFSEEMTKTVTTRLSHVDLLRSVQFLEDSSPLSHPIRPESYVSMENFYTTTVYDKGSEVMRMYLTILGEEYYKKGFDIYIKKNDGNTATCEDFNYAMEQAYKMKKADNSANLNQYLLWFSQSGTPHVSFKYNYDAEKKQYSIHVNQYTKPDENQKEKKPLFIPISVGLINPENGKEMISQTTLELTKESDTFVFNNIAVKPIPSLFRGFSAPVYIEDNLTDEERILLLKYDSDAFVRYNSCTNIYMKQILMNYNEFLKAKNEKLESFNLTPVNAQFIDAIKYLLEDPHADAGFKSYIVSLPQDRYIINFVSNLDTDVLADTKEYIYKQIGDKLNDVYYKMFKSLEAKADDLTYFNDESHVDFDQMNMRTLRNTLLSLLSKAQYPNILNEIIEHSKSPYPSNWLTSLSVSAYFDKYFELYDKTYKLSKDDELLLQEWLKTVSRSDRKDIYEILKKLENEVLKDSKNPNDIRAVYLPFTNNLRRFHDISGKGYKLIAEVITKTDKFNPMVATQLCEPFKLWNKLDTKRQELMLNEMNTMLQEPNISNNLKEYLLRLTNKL

[24] = biological target: T5, Corticotropin-releasing factor receptor 2/Corticotropin-releasing factor-binding protein; test: activators of CRF receptor 2 with binding protein – uHTS hits, confirmation (AID 602473); type: functional; conditions: read-out: EC50_Mean

Chain of Photoreceptor-specific nuclear receptor (Q9Y5X4 whole entry, the tested form may be a part): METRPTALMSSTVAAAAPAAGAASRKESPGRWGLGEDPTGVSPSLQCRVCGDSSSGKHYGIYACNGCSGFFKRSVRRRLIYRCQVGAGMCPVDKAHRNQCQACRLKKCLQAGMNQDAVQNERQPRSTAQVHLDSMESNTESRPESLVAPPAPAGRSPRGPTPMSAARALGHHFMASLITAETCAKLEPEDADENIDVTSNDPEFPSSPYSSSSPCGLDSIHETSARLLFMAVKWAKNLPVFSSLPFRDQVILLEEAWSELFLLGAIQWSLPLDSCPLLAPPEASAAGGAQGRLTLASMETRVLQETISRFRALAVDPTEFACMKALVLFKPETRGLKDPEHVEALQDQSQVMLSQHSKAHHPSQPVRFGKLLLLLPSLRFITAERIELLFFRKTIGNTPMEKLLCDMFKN

O=S(=O)(c1ccc2c(c1)OCCO2)N1CCN(c2ncnc3sccc23)CC1
AC50 [1]: 3.37 µM (active)
AC50 [2]: 3.21 µM (active)
AC50 [3]: 1.45 µM (active)
EC50 [4]: > 150 µM (not active)
EC50 [5]: > 150 µM (not active)
EC50 [6]: > 150 µM (not active)
EC50 [7]: > 150 µM (not active)
IC50 [8]: 2.06 µM (active)
AC50 [9]: 29.6 µM (active)
EC50 [10]: > 29.9 µM (inactive)
IC50 [11]: > 80 µM (inactive)

CCN1CCN(C(S)=Nc2ccc3nc(N4CCN(CC)CC4)cc(C)c3c2)CC1
AC50 [12]: 95 µM (active)

Cc1nn(Cc2cccc(F)c2)c(C)c1NC(=O)c1ccc(COc2ccccc2Cl)cc1
EC50 [13]: 1.26 µM (active)
IC50 [14]: 2.85 µM (active)
EC50 [15]: 40.4 µM (active)

O=C(O)c1cccc(NC(=O)c2cn(-c3ccccc3)nc2-c2cc3ccccc3o2)c1
IC50 [16]: 43 µM (inactive)
IC50 [17]: 18 µM (active)
CC50 [18]: 33 µM (active)
IC50 [19]: 20.9 µM (active)

O=C(Nc1cc(S(=O)(=O)N2CCCCC2)ccc1O)c1ccccc1NS(=O)(=O)c1ccc(F)c(F)c1
IC50 [20]: 12.6 µM (active)
IC50 [21]: > 20 µM (inactive)
IC50 [22]: 5.71 µM (active)
IC50 [23]: 69.4 µM (active)
EC50 [24]: 7.48 µM (active)
